This note sets out measurements from patent EP0307172A2, “Improvements in or relating to specific 5-HT3 antagonists” (ELI LILLY AND COMPANY, priority 1987, dated 1989).

The test system of one assay is cisplatin-induced emesis. The experiment in a line: Blockade of cisplatin-induced emesis in dogs. It is filed as in vivo. As to conditions: Canis lupus familiaris, iv, read-out: ED₅₀. The text has this: These compounds may also be used as antiemetic agents. […] Since 5HT₃ receptors are prevalent in the GI tract, other potential uses include other diseases of the gastro- intestinal tract, such as ischemic bowel, esophageal reflux, etc.

In a further assay the target is T1, 5-HT₃ receptor (Rattus norvegicus, UniProt P35563).
T1 construct: from tissue
T1 sequence (P35563 24-483): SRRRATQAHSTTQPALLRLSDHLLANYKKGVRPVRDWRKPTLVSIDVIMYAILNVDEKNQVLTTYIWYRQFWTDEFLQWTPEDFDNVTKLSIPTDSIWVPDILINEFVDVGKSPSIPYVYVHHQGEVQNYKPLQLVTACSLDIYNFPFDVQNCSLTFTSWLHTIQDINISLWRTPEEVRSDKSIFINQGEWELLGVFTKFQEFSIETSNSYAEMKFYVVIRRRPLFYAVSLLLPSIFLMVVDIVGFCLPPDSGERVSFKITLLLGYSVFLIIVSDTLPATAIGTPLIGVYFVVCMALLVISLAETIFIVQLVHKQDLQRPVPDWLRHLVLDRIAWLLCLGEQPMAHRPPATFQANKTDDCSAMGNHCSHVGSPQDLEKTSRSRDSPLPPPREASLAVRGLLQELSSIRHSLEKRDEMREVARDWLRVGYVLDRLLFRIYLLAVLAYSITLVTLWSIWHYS
The experiment in a line: Inhibition of serotonin-induced Von Bezold-Jarisch reflex in rats. It counts as in vivo. As to conditions: rat, iv, 15 minutes prior to 5-HT, read-out: Percent Inhibition of Reflex in Rats; for inhibition at 0.001 mg/kg: 0.001 mg/kg I.V.; for inhibition at 0.003 mg/kg: 0.003 mg/kg I.V.; for inhibition at 0.01 mg/kg: 0.01 mg/kg I.V.; for inhibition at 0.03 mg/kg: 0.03 mg/kg I.V. The text has this: The compounds of Formula I of this invention are long-acting, orally effective specific 5-HT₃ receptor antagonists, rendering them useful for the treatment of migraine. Because of this mechanism, the compounds of this invention should also be useful for treating emesis, motion sickness, ischemic bowel disease, diabetic gastric paresis, relaxation of the gastro-intestinal tract for instrumentation, other gastro-intestinal pain following surgery, obstetrics or as in abdominal cramps, and for treating CNS disorders such as schizophrenia and anxiety. The ability of these compounds to antagonize the effects of 5-HT was assessed by their inhibition of the Von Bezold-Jarisch reflex induced by 5-HT injected intravenously into the rat (See Paintal, Physiol. Rev., 53, 159 (1973)). When administered by the intravenous route 15 minutes prior to the administration of 5-HT, the compounds of this invention were effective in inhibiting the serotonin-induced Bezold-Jarisch reflex as summarized in Table 1 below: Table 1

Take `CN1[C@@H]2CC[C@H]1C[C@@H](NC(=O)c1cc(Cl)cc3c1OC(C)(C)C3)C2` [Example 19, Endo-5-chloro-2,3-dihydro-2,2-dimethyl-N-(8-methyl-8-azabicyclo[3.2.1.]oct-3-yl)-7-benzofurancarboxamide (Z)-2-butenedioate]: the ED50 with cisplatin-induced emesis is 0.0356 mg/kg. At 5-HT₃ receptor, the inhibition at 0.001 mg/kg came to 66% and the inhibition at 0.003 mg/kg amounted to 90%. Consider `CN1[C@@H]2CC[C@H]1C[C@@H](NC(=O)c1cccc3c1OC(C)(C)C3)C2` [Example 17, Endo-2,3-dihydro-2,2-dimethyl-N-(8-methyl-8-azabicyclo[3.2.1]oct-3-yl)-7-benzofurancarboxamide (Z)-2-butenedioate], for which, at 5-HT₃ receptor, the inhibition at 0.003 mg/kg is -2%, the inhibition at 0.01 mg/kg turned out to be 53% and the inhibition at 0.03 mg/kg came to 82%.

For `CN1[C@@H]2CC[C@H]1C[C@@H](NC(=O)c1c(Cl)ccc3c1OC(C)(C)C3)C2` [Example 50, Endo-2,2-dimethyl-2,3-dihydro-6-chloro-N-(8-methyl-8-azabicyclo[3.2.1]oct-3-yl)-7-benzofurancarboxamide (Z)-2-butenedioate], the inhibition at 0.01 mg/kg on 5-HT₃ receptor is -3%. Turning to `CN1[C@@H]2CC[C@H]1C[C@H](OC(=O)c1cc(Cl)cc3c1OC(C)(C)C3)C2` [Example 26, Exo-2,2-dimethyl-5-chloro-2,3-dihydro-7-benzofurancarboxylic acid, 8-methyl-8-azabicyclo[3.2.1]oct-3-yl ester (Z)-2-butenedioate], on 5-HT₃ receptor, the inhibition at 0.01 mg/kg amounted to 2%. Consider `Cc1cc2c(c(C(=O)O[C@H]3C[C@H]4CC[C@@H](C3)N4C)c1)OC(C)C2` (mixture of isomers) [Example 40, dl-endo-2,3-dihydro-2,5-dimethyl-7-benzofurancarboxylic acid, 8-methyl-8-azabicyclo[3.2.1]oct-3-yl ester (Z)-2-butenedioate], for which, at 5-HT₃ receptor, the inhibition at 0.001 mg/kg amounted to 3%, the inhibition at 0.003 mg/kg worked out at 14% and the inhibition at 0.01 mg/kg turned out to be 67%. Take `CN1[C@@H]2CC[C@H]1C[C@@H](NC(=O)c1ccc(Cl)c3c1OC(C)(C)C3)C2` [Example 18, Endo-4-chloro-2,3-dihydro-2,2-dimethyl-N-(8-methyl-8-azabicyclo[3.2.1]oct-3-yl)-7-benzofurancarboxamide (Z)-2-butenedioate]: at 5-HT₃ receptor, the inhibition at 0.01 mg/kg came out at 1.2%. On the same count and under the same terms, the result for `COc1cc2c(c(C(=O)N[C@H]3C[C@H]4CC[C@@H](C3)N4C)c1)OC(C)C2` (mixture of isomers) [Example 27, dl-endo-2,3-dihydro-5-methoxy-2-methyl-N-(8-methyl-8-azabicyclo[3.2.1]oct-3-yl)-7-benzofurancarboxamide (Z)-2-butenedioate] reads 20%. Regarding `CN1[C@@H]2CCC[C@H]1C[C@@H](NC(=O)c1cccc3c1OC(C)(C)C3)C2` [Example 55, Endo-2,3-dihydro-2,2-dimethyl-N-(9-methyl-9-azabicyclo[3.3.1]non-3-yl)-7-benzofurancarboxamide (Z)-2-butenedioate], the inhibition at 0.003 mg/kg at 5-HT₃ receptor was found to be 88%. For the compound `CN1[C@@H]2CC[C@H]1C[C@@H](OC(=O)c1cc(Cl)c3c(c1)CC(C)(C)O3)C2` [Example 29, Endo-2,2-dimethyl-7-chloro-2,3-dihydro-5-benzofurancarboxylic acid, 8-methyl-8-azabicyclo[3.2.1]oct-3-yl ester (Z)-2-butenedioate], on 5-HT₃ receptor, the inhibition at 0.01 mg/kg is -4%.

As for `CN1[C@@H]2CC[C@H]1C[C@@H](OC(=O)c1cccc3c1OC(C)(C)C3)C2` [Example 24, Endo-2,3-dihydro-2,2-dimethyl-7-benzofurancarboxylic acid, 8-methyl-8-azabicyclo[3.2.1]oct-3-yl ester (Z)-2-butenedioate], on 5-HT₃ receptor, the inhibition at 0.003 mg/kg is 21% and the inhibition at 0.01 mg/kg was found to be 38%. For the compound `CC1Cc2cc(Cl)cc(C(=O)N[C@H]3C[C@H]4CC[C@@H](C3)N4C)c2O1` (mixture of isomers) [Example 32, dl-endo-5-chloro-2,3-dihydro-2-methyl-N-(8-methyl-8-azabicyclo[3.2.1]oct-3-yl)-7-benzofurancarboxamide (Z)-2-butenedioate], at 5-HT₃ receptor, the inhibition at 0.001 mg/kg stood at 58%, the inhibition at 0.003 mg/kg was found to be 80% and the inhibition at 0.01 mg/kg was 80%. Regarding `CN1[C@@H]2CC[C@H]1C[C@H](NC(=O)c1cccc3c1OC(C)(C)C3)C2` [Example 39, Exo-2,3-dihydro-2,2-dimethyl-N-(8-methyl-8-azabicyclo[3.2.1]oct-3-yl)-7-benzofurancarboxamide (Z)-2-butenedioate], on 5-HT₃ receptor, the inhibition at 0.003 mg/kg was -2%, the inhibition at 0.01 mg/kg was found to be 53% and the inhibition at 0.03 mg/kg worked out at 82%. Regarding `CC1(C)CCc2cccc(C(=O)NC3CN4CCC3CC4)c2O1` (stereo not shown) [Example 53, N-(1-azabicyclo[2.2.2]oct-3-yl)-3,4-dihydro-2,2-dimethyl-2H-1-benzopyran-8-carboxamide (Z)-2-butenedioate], at 5-HT₃ receptor, the inhibition at 0.001 mg/kg came to 50% and the inhibition at 0.003 mg/kg came out at 93%. The matching figures for `CC1(C)Cc2cccc(C(=O)NC3CN4CCC3CC4)c2O1` (stereo not shown) [Example 60, 2,3-Dihydro-2,2-dimethyl-N-(1-azabicyclo[2.2.2]oct-3-yl)-7-benzofurancarboxamide (Z)-2-butenedioate]: 25% and 87%. Take `CN1[C@@H]2CC[C@H]1C[C@@H](NC(=O)c1cccc3c1CC(C)(C)O3)C2` [Example 22, Endo-2,3-dihydro-2,2-dimethyl-N-(8-methyl-8-azabicyclo[3.2.1]oct-3-yl)-4-benzofurancarboxamide (Z)-2-butenedioate]: on 5-HT₃ receptor, the inhibition at 0.01 mg/kg is -4%.
